In patent publication US5143911A, “Antibiotic C-3 di-hydroxyphenyl substituted cephalosporin compounds, compositions and method of use thereof” (Bristol-Myers Squibb Company, priority 1990, dated 1992):
Values after ≈ are worked out from the molar mass of the structure shown.

Experiments:
[1] = system: Penicillin (PC)sensitive S. (5 strains); test: MIC, two-fold serial agar dilution, Mueller-Hinton agar (geometric mean, group Gp-Ia); assay type: cell-based, S. aureus; settings: Staphylococcus aureus
Method: (§1) For a primary evaluation of some representative compounds of this invention, minimum inhibitory concentrations (MIC's) were determined against 32 strains of test organisms by two-fold serial agar dilution method in Mueller-Hinton agar.
Gp-Ia: Penicillin (PC)sensitive S.

PCresistant S. aureus = test: MIC, two-fold serial agar dilution, Mueller-Hinton agar (geometric mean, group Gp-Ib); assay type: cell-based; settings: Staphylococcus aureus, penicillin-resistant S. aureus, 5 strains
Method: as §1
GpIb: PCresistant S. aureus

[2] = system: Cephalothin (CET)sensitive E. coli(2), Kl. pneumoniae(1) and Pr. mirabilis(2); test: MIC, two-fold serial agar dilution, Mueller-Hinton agar (geometric mean, group Gn-Ia); assay type: cell-based; settings: 5 strains
Method: as §1
GnIa: Cephalothin (CET)sensitive E. coli(2)*, Kl. pneumoniae(1) and Pr.

[3] = system: CETresistant E. coli(3), and Kl. pneumoniae(2); test: MIC, two-fold serial agar dilution, Mueller-Hinton agar (geometric mean, group Gn-Ib); assay type: cell-based; settings: Escherichia coli, read-out: Geometric Mean of MIC, Gn-Ib
Method: as §1
GnIb: CETresistant E. coli(3), and Kl. pneumoniae(2)

[4] = system: M. morganii(1), Ent. cloacae(2), and Ser. marcescens(2); test: MIC, two-fold serial agar dilution, Mueller-Hinton agar (geometric mean, group Gn-II); assay type: cell-based; settings: 5 strains
Method: as §1
GnII: M. morganii(1), Ent. cloacae(2), and Ser. marcescens(2)

S. epidermidis 11-1168 = assay type: cell-based; settings: Staphylococcus epidermidis, 111168, pH 7.2, 32° C. 18 hr, 10^6 cells/ml
E. faecium A24817 = assay type: cell-based; settings: Enterococcus faecium, pH 7.2, 32° C. 18 hr, 10^6 cells/ml
P. vulgaris IPM-13 = assay type: cell-based; settings: Proteus vulgaris, IPM13, pH 7.2, 32° C. 18 hr, 10^6 cells/ml
B. fragilis A 22693 = test: In vitro activity against anaerobes (MIC), two-fold serial agar dilution, GAM agar; assay type: cell-based; settings: Bacteroides fragilis, A22693, Gn, Beta-Lactamase(-)
B. fragilis A 22053 = test: as above; assay type: cell-based; settings: Bacteroides fragilis, A22053, Gn, Beta-Lactamase(-)
B. fragilis A 21916 = test: as above; assay type: cell-based; settings: Bacteroides fragilis, A21916, Gn, Beta-Lactamase(-)
B. fragilis A 22695 = test: as above; assay type: cell-based; settings: Bacteroides fragilis, A22695, Gn, Beta-Lactamase(+)
B. fragilis CUH-108 = test: as above; assay type: cell-based; settings: Bacteroides fragilis, CUH108, Gn, Beta-Lactamase(+), Clindamycin-resistant
Method: In vitro activity against anaerobic bacteria was determined on eight strains of B. fragilis by two-fold serial agar dilution method in GAM agar.

C. difficile A 21675 = test: In vitro activity against anaerobes (MIC); assay type: cell-based; settings: Clostridioides difficile, A21675, Gp, Clindamycin-resistant
C. perfringens A9635 = test: microbe, parasite or virus in culture; assay type: cell-based; settings: Clostridium perfringens
E. coli Juhl = test: MIC against the infecting organism (Table 2); settings: Escherichia coli
S. aureus 209P = settings: Staphylococcus aureus, 18 h, pH 7.2
S. aureus 4-1015 (MRSA) = settings: Staphylococcus aureus, 18 h, pH 7.2
S. epidermidis 11-1230 = settings: Staphylococcus epidermidis, 111230, 18 h, pH 7.2
E. faecalis A9808 = settings: Enterococcus faecalis, A9808, 18 h, pH 7.2
M. luteus 1001 = settings: Micrococcus luteus, 1001, 18 h, pH 7.2
E. coli Juhl A15119 = settings: Escherichia coli, JUHLA15119, 18 h, pH 7.2
P. mirabilis IFO-2849 = settings: Proteus mirabilis, IFO2849, 18 h, pH 7.2
M. morgani 1510 = settings: 18 h, pH 7.2
E. cloacae IPM-12 = settings: Enterobacter cloacae, IPM12, 18 h, pH 7.2
P. aeruginosa KKA 19 = settings: Pseudomonas aeruginosa, KKA19, 18 h, pH 7.2
P. aeruginosa IPM-8 = settings: Pseudomonas aeruginosa, IPM8, 18 h, pH 7.2
P. aeruginosa IPM-9 = settings: Pseudomonas aeruginosa, IPM9, 18 h, pH 7.2
X. maltophilia No. 661 = settings: Stenotrophomonas maltophilia, NO.661, 18 h, pH 7.2
C. terrigena IFO 12685 = settings: 18 h, pH 7.2
S. aureus Smith = settings: Staphylococcus aureus, in Mus musculus, im, read-out: PD50

CO/N=C(\C(=O)NC1C(=O)N2C(C(=O)O)=C(/C=C/COC(=O)c3ccc(O)c(O)c3)CS[C@H]12)c1csc(N)n1 (stereo partly shown) [Ia, 7-[(Z)-2-(2-Aminothiazol-4-yl)-2-methoxyiminoacetamido]-3-[(E)-3-(3,4-dihydroxybenzoyloxy)-1-propen-1-yl]-3-cephem-4-carboxylic acid]
MIC [1]: 1.2 µg/mL (≈ 2.08 µM) | MIC (PCresistant S. aureus): 1.6 µg/mL (≈ 2.78 µM) | MIC [2]: 0.017 µg/mL (≈ 0.0295 µM) | MIC [3]: 0.029 µg/mL (≈ 0.0504 µM) | MIC [4]: 0.46 µg/mL (≈ 0.799 µM) | MIC (S. epidermidis 11-1168): 3.1 µg/mL (≈ 5.39 µM) | MIC (E. faecium A24817): > 100 µg/mL | MIC (P. vulgaris IPM-13): > 100 µg/mL | MIC (B. fragilis A 22693): 0.8 µg/mL (≈ 1.39 µM) | MIC (B. fragilis A 22053): 0.8 µg/mL (≈ 1.39 µM) | MIC (B. fragilis A 21916): 1.6 µg/mL (≈ 2.78 µM) | MIC (B. fragilis A 22695): 12.5 µg/mL (≈ 21.7 µM) | MIC (B. fragilis CUH-108): 25 µg/mL (≈ 43.4 µM) | MIC (C. difficile A 21675): 12.5 µg/mL (≈ 21.7 µM) | MIC (C. perfringens A9635): 0.2 µg/mL (≈ 0.347 µM) | MIC (E. coli Juhl): 0.1 µg/mL (≈ 0.174 µM) | MIC (S. aureus 209P): 3.1 µg/mL (≈ 5.39 µM) | MIC (S. aureus 4-1015 (MRSA)): 12.5 µg/mL (≈ 21.7 µM) | MIC (S. epidermidis 11-1230): 3.1 µg/mL (≈ 5.39 µM) | MIC (E. faecalis A9808): 100 µg/mL (≈ 174 µM) | MIC (M. luteus 1001): 0.1 µg/mL (≈ 0.174 µM) | MIC (E. coli Juhl A15119): 0.05 µg/mL (≈ 0.0869 µM) | MIC (P. mirabilis IFO-2849): 0.05 µg/mL (≈ 0.0869 µM) | MIC (M. morgani 1510): 3.1 µg/mL (≈ 5.39 µM) | MIC (E. cloacae IPM-12): > 100 µg/mL | MIC (P. aeruginosa KKA 19): 50 µg/mL (≈ 86.9 µM) | MIC (P. aeruginosa IPM-8): 6.3 µg/mL (≈ 10.9 µM) | MIC (P. aeruginosa IPM-9): 6.3 µg/mL (≈ 10.9 µM) | MIC (X. maltophilia No. 661): 12.5 µg/mL (≈ 21.7 µM) | MIC (C. terrigena IFO 12685): 0.8 µg/mL (≈ 1.39 µM) | ED50 (S. aureus Smith): 0.4 mg/kg
